Source: patent US12215101B2, “Pro drugs of PDE10 compounds” (Merck Sharp & Dohme LLC, priority 2021, dated 2025)
Values after ≈ are worked out from the molar mass of the structure shown.

Experiments:
[1] = Aqueous solubility (slurry in pH 7 buffer, UPLC); format: physicochemical; conditions: aqueous buffer, thermodynamic from solid; pH 7.4 in PBS buffer solution; read-out: Solubility
Description: Aqueous solubility of the compounds was measured by suspending, sonicating (30 minutes), and slurrying (2 hours, 1000 rpm) excess solid (typically 5-10 mg) in phosphate buffered saline at pH 7, or equivalent pH 7 buffer. The suspension was then sonicated again for 30 minutes and stirred again at 1000 rpm for at least 6-24 hours. Approximately 400 μL of sample was removed and placed into spin filters. Each sample was spun at 14K rpm for 10 minutes using a 0.45 μm PVDF spin filter. A portion of the filtrate was removed and diluted with 1:1 ACN:H2O. The resultant samples were analyzed using UPLC analysis. Retains of the solids were checked by XRPD to determine if the material was crystalline or amorphous. Solubility of Compound A was measured at 140 μg/mL at pH 7.4 in PBS buffer solution.

human PDE10 enzyme = target: T1, human PDE10 enzyme (Homo sapiens, UniProt Q9Y233); assay: PDE10 fluorescence polarization (IMAP FP) inhibition assay; format: biochemical; conditions: 'generally less than about'
T1 construct: made in house; host or cells: AD293 cells, transiently transfected; the supernatant (cytoplasmic fraction) of the sonicated lysate served as enzyme
Description: The activity of the compounds in accordance with the present invention as PDE10 inhibitors may be readily determined without undue experimentation using a fluorescence polarization (FP) methodology that is well known in the art (Huang, W., et al., J. Biomol Screen, 2002, 7: 215).
In a typical experiment the PDE10 inhibitory activity of compounds such as Compound A was determined in accordance with the following experimental method. PDE10A2 was amplified from human fetal brain cDNA (Clontech, Mountain View, CA) using a forward primer corresponding to nucleotides 56-77 of human PDE10A2 (Accession No. AF127480, Genbank Identifier 4894716), containing a Kozak consensus sequence, and a reverse primer corresponding to nucleotides 2406-2413 of human PDE10A2 (Accession No. AF127480, Genbank Identifier 4894716). Amplification with Easy-A polymerase (Stratagene, La Jolla, CA) was 95° C. for 2 minutes followed by thirty three cycles of 95° C. for 40 seconds, 55° C. for 30 seconds, and 72° C. for 2 minutes 48 seconds. Final extension was 72° C. for 7 minutes. […] The fluorescence polarization assay for cyclic nucleotide phosphodiesterases was performed using an IMAP® FP kit supplied by Molecular Devices, Sunnyvale, CA (product #R8139). […] 0% of inhibition is determined by using DMSO (1% final concentrations). […]

T1 sequence (Q9Y233 267-1055): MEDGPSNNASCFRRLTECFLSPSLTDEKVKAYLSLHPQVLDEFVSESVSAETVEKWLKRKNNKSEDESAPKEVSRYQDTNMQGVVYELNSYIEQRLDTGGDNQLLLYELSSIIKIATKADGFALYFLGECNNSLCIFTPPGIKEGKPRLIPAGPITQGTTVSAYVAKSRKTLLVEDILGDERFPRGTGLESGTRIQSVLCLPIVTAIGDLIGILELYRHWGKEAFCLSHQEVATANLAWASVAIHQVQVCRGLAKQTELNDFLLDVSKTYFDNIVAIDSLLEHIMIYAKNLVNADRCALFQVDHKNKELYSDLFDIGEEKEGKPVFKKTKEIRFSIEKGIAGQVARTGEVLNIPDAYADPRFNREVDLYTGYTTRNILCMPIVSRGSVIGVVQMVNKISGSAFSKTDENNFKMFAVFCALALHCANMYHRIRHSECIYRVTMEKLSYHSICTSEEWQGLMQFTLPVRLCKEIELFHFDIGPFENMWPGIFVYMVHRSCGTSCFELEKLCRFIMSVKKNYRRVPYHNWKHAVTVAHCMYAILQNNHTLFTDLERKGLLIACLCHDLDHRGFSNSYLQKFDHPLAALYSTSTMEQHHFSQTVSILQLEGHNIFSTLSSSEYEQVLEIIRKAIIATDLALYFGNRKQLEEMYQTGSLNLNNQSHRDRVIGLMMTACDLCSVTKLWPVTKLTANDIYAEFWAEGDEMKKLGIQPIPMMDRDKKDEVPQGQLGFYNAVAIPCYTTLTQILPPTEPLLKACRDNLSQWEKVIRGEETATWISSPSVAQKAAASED

With `Cc1ccc([C@H]2C[C@@H]2COc2cc(NCc3nnc(C)s3)nc(C)n2)nc1` [Compound A, 2-methyl-N-((5-methyl-1,3,4-thiadiazol-2-yl)methyl)-6-(((1S,2S)-2-(5-methylpyridin-2-yl)cyclopropyl)methoxy)pyrimidin-4-amine, reference compound] the solubility [1] was 0.14 mg/mL (≈ 366 µM) and the Ki (human PDE10 enzyme) was < 1 µM.
